From patent US12209112B2, “Methods of preventing or treating diseases, conditions, or disorders associated with chemotherapy” (The Chinese University of Hong Kong, priority 2022, dated 2025)

Experiments:
hESC-CMs = assay: α-actinin immunostaining for sarcomeric integrity; format: cell-based, human; details: hESC-CMs; agent only, no doxorubicin
Description: hESC-CMs were permeabilized using 0.1% Triton X-100 (Thermo Fisher Scientific, USA). After permeabilizing for 15 minutes, cells were washed three times in PBS, and further permeabilization was blocked by incubating cells in PBS with 10% FBS (Hyclone, USA) for 1 hour at room temperature. Cells were incubated with the primary anti-actinin antibody (1:400) (Abcam, UK) and diluted in PBS with 10% FBS overnight. Cells were then washed three times with PBS and incubated with a goat anti-mouse IgG1 secondary antibody (1:1000 diluted in PBS with 10% FBS) (Thermo Fisher Scientific, USA) for 1 hour at room temperature. Finally, cells were washed twice with PBS and mounted using ibidi mounting medium with DAPI (Ibidi, Germany). Microscopic images were acquired using the DMi8s Research Inverted Thunder Imager Live Cell System (Leica, Germany) at 20×, 40×, and 100× magnification.

C57BL/6J male mice [1] = assay: Noninvasive blood pressure in mouse doxorubicin cardiotoxicity model; format: in vivo; details: for Day 28 DBP / Day 28 SBP: after doxorubicin 5 mg/kg intraperitoneal once weekly for four weeks (Dox + groups); for Day 28 DBP / Day 28 SBP / Day 0 DBP / Day 0 SBP: n = 4 per group; for Day 0 DBP / Day 0 SBP: before doxorubicin administration
From the text: Recombinant human GDF15/MIC-1 protein (CHO-derived) was purchased from PeproTech Inc. (Cranbury, USA) and described in Example 1. […] PubChem identifier number 71384) were purchased from Abcam (Cambridge, UK). For in vitro studies, solid lyophilized powder of these two drugs were solubilized at the recommended concentrations in sterile water, and separate aliquots were made and frozen until thawing prior to addition to cell cultures. […] The recommended dose ratio of dexrazoxane to doxorubicin was 10 to 1. In the following examples, 5 mg/kg of doxorubicin was used which correspond to 50 mg/kg of dexrazoxane. The FDA recommends that dexrazoxane be injected within 0.5 hour prior to doxorubicin infusion in individuals. This was followed in the same manner when applying to the test animals. Ten- to twelve-week old C57BL/6J male mice were purchased from the Laboratory Animal Services Centre of CUHK. They were maintained in specific pathogen-free facility of the CUHK Laboratory Animal Services Centre Research Unit at Prince of Wales Hospital with free access to food and water and maintained in a light/night cycle of 12 hours/12 hours. All mice were fed a standard diet. Blood pressure of animals was measured using the noninvasive CODA® High Throughput System (Torrington, USA) in accordance with the manufacturer's instructions. Measurement platform was prewarmed and maintained at 33-35° C. O-cuffs and VPR-cuffs were used as instructed. Blood pressure of each mouse was measured for at least three cycles. Mice were released and returned to their cages immediately after measurement. Blood pressure was measured twice, once at the beginning of the experiment and once before sacrifice. To induce cardiotoxicity in the mouse, four weekly intraperitoneal injections of doxorubicin at 5 mg/kg were administered. After one dose of doxorubicin at 5-6 mg/kg in a mouse, the level of exposure has been estimated to be similar to that of a human individual being given a standard dose of doxorubicin at approximately 60 mg/m^2.

C57BL/6J male mice [2] = format: in vivo, mouse; details: mice; pretreatment before doxorubicin
Description: (§1) Recombinant human GDF15/MIC-1 protein (CHO-derived) was purchased from PeproTech Inc. (Cranbury, USA) and described in Example 1. […] For in vitro studies, solid lyophilized powder of these two drugs were solubilized at the recommended concentrations in sterile water, and separate aliquots were made and frozen until thawing prior to addition to cell cultures. For in vivo studies, all agents were dissolved in […] normal saline according to the required concentrations (doxorubicin, 5 mg/kg; GDF15, 0.5 mg/kg; dexrazoxane, […]), and the final volume of each intraperitoneal injection was 100 μl. The recommended dose ratio of dexrazoxane to doxorubicin was 10 to 1. In the following examples, 5 mg/kg of doxorubicin was used which correspond to 50 mg/kg of dexrazoxane. The FDA recommends that dexrazoxane be injected within 0.5 hour prior to doxorubicin infusion in individuals. This was followed in the same manner when applying to the test animals.
To induce cardiotoxicity in the mouse, four weekly intraperitoneal injections of doxorubicin at 5 mg/kg were administered. After one dose of doxorubicin at 5-6 mg/kg in a mouse, the level of exposure has been estimated to be similar to that of a human individual being given a standard dose of doxorubicin at approximately 60 mg/m^2. Previous studies have shown that mice injected with doxorubicin once a week at 5 mg/kg for four weeks developed cardiotoxicity, as evidenced by decreased ventricular ejection fraction, cardiomyocyte apoptosis, histopathological changes consistent with doxorubicin-induced myocardial damage, and increased mortality rate, compared with the control group.
The hearts of mice were collected after sacrifice and fixed in 4% paraformaldehyde overnight, followed by paraffin embedding. Afterwards the hearts were cut into 4 μm thick slices. Sections were deparaffinized and rehydrated using sequential immersion in 100% alcohol, 95% alcohol and 70% alcohol for 15 minutes each. […]

C57BL/6J male mice [3] = assay: TUNEL staining of mouse myocardium (cardiomyocyte apoptosis); format: in vivo; details: pretreatment before doxorubicin
Description: as §1
(§2) To induce cardiotoxicity in the mouse, four weekly intraperitoneal injections of doxorubicin at 5 mg/kg were administered. After one dose of doxorubicin at 5-6 mg/kg in a mouse, the level of exposure has been estimated to be similar to that of a human individual being given a standard dose of doxorubicin at approximately 60 mg/m^2. […]

C57BL/6J male mice [4] = format: in vivo, mouse; details: mice; pretreatment before doxorubicin, versus doxorubicin only
Description: as §1, §2
The image processing and analysis software, ImageJ version 1.53K, was used for evaluation of histopathology from mouse experiments. For Masson's trichrome staining, the acquired images were converted from color to grayscale using ImageJ, the blue-stained collagen were segmented (separated) using thresholding, and the threshold areas in a representative microscopic field were quantified. […] Cells containing brown staining (TUNEL-positive cells) were counted in a representative microscopic field for each mouse in each group.

Molecule | sarcomere structure (α-actinin immunostaining) (hESC-CMs) | Day 28 DBP (C57BL/6J male mice [1]) | Day 28 SBP (C57BL/6J male mice [1]) | Day 0 DBP (C57BL/6J male mice [1]) | Day 0 SBP (C57BL/6J male mice [1]) | myocardial histopathology (hematoxylin and eosin) (C57BL/6J male mice [2]) | cardiomyocyte death by apoptosis (TUNEL staining) (C57BL/6J male mice [3]) | cardiac fibrosis (Masson's trichrome) (C57BL/6J male mice [4]) | systolic and diastolic blood pressures compared with Dex+Dox group (C57BL/6J male mice [1]; Day 28)
C[C@@H](CN1CC(=O)NC(=O)C1)N1CC(=O)NC(=O)C1.Cl [Dex, 4,4′-[(1S)-1-Methyl-1,2-ethanediyl]bis-2,6-piperazinedione hydrochloride, reference compound] | well-organized, striated sarcomeres | 84 ± 15 mmHg | 108 ± 13 mmHg | 78 ± 26 mmHg | 114 ± 14 mmHg | similarly improved | reduced extent of cardiomyocyte death by apoptosis | visually and quantitatively reduced | 
GDF15 + Dox: mice given recombinant human GDF15 pretreatment followed by doxorubicin (protein, UniProt Q99988 195-308, looked up, given with doxorubicin) Growth/differentiation factor …: ARARNGDHCPLGPGRCCRLHTVRASLEDLGWADWVLSPREVQVTMCIGACPSQFRAANMHAQIKTSLHRLKPDTVPAPCCVPASYNPMVLIQKTDTGVSLQTYDDLLAKDCHCI |  | 85 ± 13 mmHg | 111 ± 15 mmHg | 76 ± 25 mmHg | 108 ± 27 mmHg |  |  |  | lower than that of Dex+Dox treatment group
